Results on eleven compounds are retold here after patent publication US10689362B2, “Quinoxaline compounds as type III receptor tyrosine kinase inhibitors” (Development Center for Biotechnology, priority 2016, dated 2020).

Each structure is given as a SMILES string.

The test system of assay [1] is MV4-11 human acute myeloid leukemia cell with FLT3-ITD mutation. Put plainly: MV4-11 cell proliferation assay (CellTiter-96). The class given is cell-based. To be noted: Cytotoxicity, MV4-11 cells, 72 hours. In outline:
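MV4-11 cells (FLT3-ITD, FLT3-dependent growth) seeded at 6500 cells/well, incubated overnight at 37° C., 5% CO2, then exposed to increasing compound concentrations for 72 hours. Viability read by CellTiter96 AQueous One reagent (4 hours), absorbance at 490 nm.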

Assay [2] addresses c-KIT kinase (Homo sapiens (Human), UniProt P10721). Put plainly: c-KIT kinase assay (radiometric). The class given is biochemical. To be noted: class symbol. In outline: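 Recombinant c-Kit (20 ng) with 2 μg Poly-(Glu4:Tyr1) in MOPS pH 7.0 buffer with MgCl2/MnCl2, 10 μM ATP plus [^33P]-ATP, 4% DMSO final, 60 min at 30° C. Stopped with phosphoric acid, filter-captured and scintillation counted; IC50 from curve fit.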

In assay [3] the test system is THP-1 human acute monocytic leukemia cell harboring NRAS G12D mutation. Put plainly: THP-1 cell proliferation assay (counter screen, CellTiter-96). The class given is cell-based. To be noted: Cytotoxicity, THP-1 cells (counter screen), 72 hours. The method, boiled down:
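THP-1 cells, RTK-independent owing to NRAS G12D, seeded at 5000/well, incubated overnight at 37 °C/5% CO2, then exposed to increasing compound concentrations for 72 h. CellTiter96 AQueous One reagent added for 4 h; viability from absorbance at 490 nm.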
(Counterscreens check selectivity or assay interference.)

Assay [4] deals with PDGFRβ kinase (Homo sapiens (Human), UniProt P09619). Put plainly: PDGFRβ kinase assay (radiometric). The class given is biochemical. The method, boiled down: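 Radiometric assay: recombinant PDGFRβ with poly(Glu4:Tyr1) in MOPS pH 7.0 buffer containing Mg2+/Mn2+, 10 μM ATP plus [33P]-ATP, and compound at 4% DMSO final. Incubated 60 min at 30° C, stopped with phosphoric acid, filter-captured and scintillation-counted. IC50 from curve fitting.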
Chain of PDGFRβ kinase (P09619 33-1106): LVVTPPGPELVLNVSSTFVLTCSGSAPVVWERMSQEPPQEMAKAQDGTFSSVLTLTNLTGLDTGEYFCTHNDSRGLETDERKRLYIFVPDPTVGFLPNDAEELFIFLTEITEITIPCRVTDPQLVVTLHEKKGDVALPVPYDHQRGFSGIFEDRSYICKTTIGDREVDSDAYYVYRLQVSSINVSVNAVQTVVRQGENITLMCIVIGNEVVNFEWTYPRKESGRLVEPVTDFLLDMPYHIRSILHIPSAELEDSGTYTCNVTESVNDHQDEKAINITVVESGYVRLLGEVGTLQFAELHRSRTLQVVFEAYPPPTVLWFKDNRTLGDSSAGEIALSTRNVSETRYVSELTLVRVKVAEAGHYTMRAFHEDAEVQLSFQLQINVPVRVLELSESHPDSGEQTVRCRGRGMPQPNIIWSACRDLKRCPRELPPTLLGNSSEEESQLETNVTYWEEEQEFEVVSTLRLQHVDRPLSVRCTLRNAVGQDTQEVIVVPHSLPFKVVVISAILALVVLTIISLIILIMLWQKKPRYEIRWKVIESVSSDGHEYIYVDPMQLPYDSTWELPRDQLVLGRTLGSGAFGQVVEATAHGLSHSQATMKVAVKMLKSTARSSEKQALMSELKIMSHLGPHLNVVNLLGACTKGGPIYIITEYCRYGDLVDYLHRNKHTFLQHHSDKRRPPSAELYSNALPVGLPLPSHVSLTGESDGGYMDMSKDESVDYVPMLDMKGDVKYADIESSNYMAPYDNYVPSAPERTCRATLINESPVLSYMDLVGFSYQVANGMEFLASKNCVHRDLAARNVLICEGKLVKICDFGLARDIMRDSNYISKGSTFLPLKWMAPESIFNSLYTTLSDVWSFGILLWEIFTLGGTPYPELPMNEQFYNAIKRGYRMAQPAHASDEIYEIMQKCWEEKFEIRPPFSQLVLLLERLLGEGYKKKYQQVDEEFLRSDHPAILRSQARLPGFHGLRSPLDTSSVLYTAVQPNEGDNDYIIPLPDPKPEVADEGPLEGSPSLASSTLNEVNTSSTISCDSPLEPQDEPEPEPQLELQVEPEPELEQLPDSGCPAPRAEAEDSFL

The target of assay [5] is FLT3 kinase (Homo sapiens (Human), UniProt P36888). In words: FLT3 kinase assay (radiometric). The class given is biochemical. To be noted: bound. The method, boiled down:
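Recombinant FLT3 (5 ng) phosphorylating poly(Glu4:Tyr1) (2 μg) with 10 μM ATP plus [^33P]-ATP in MOPS pH 7.0 buffer, 4% DMSO final, 60 min at 30° C. Reaction stopped with phosphoric acid, filter-captured and scintillation-counted; IC50 derived from dose-response.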

Assay [6] deals with Kasumi-1 human acute myeloid leukemia cell with c-KIT N822K activating mutation. In words: Kasumi-1 cell proliferation assay (CellTiter-96). The class given is cell-based. The note with it: Cytotoxicity, Kasumi-1 cells, 72 hours. The method, boiled down:
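Kasumi-1 cells, seeded at 64000 cells/well and incubated overnight at 37 °C, were exposed to increasing compound concentrations for 72 h. Viability was measured by CellTiter96 AQueous One reagent (4 h) and absorbance at 490 nm.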

The target of assay [7] is CSF-1R kinase (Homo sapiens (Human), UniProt P07333). Put plainly: CSF-1R kinase assay (AlphaScreen). The note with it: class symbol. The class given is biochemical. Here is the method:
Inhibition of CSF-1R kinase activity by a test compound disclosed herein was estimated by AlphaScreen (PerkinElmer). […] Reactions were incubated at 30° C. for 45 min and stopped by adding 5 μL of 50 mM EDTA. Analysis of resulting product using an AlphaScreen kit, and counted with Enspire Alpha (PerkinElmer). […] The IC50 values of quinoxaline compounds of this invention against CSF-1R kinase were determined using the GraphPad Prism 5 software.
On the technique in general: Alpha assays give light when donor and acceptor beads are brought close together.

For assay [8], the system named is osteoclast precursors (osteoclast differentiation). Put plainly: Osteoclast tartrate-resistant acid phosphatase assay. The class given is cell-based. To be noted: 168 h, at 1 μM treatment, 7 days, RANKL and M-CSF, read-out: inhibition activity against osteoclast differentiation. The method, boiled down:
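Differentiation inhibition was scored at 1 μM compound in duplicate, using supernatant TRAP activity read at 550 nm with an acid phosphatase kit.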

Assay [9] concerns CSF-1-dependent M-NFS-60 mouse myeloid leukemia cell. Put plainly: M-NFS-60 cell proliferation assay (CellTiter-96). The format is cell-based. To be noted: Cytotoxicity, M-NFS-60 cells, 72 hours. In outline: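 CSF-1-dependent M-NFS-60 cells seeded at 2000 cells/well, settled overnight at 37 °C, 5% CO2, then exposed to increasing compound concentrations for 72 h. Viability read by CellTiter 96 AQueous One reagent (4 h) at 490 nm absorbance.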

Chain of CSF-1R kinase (P07333 20-972): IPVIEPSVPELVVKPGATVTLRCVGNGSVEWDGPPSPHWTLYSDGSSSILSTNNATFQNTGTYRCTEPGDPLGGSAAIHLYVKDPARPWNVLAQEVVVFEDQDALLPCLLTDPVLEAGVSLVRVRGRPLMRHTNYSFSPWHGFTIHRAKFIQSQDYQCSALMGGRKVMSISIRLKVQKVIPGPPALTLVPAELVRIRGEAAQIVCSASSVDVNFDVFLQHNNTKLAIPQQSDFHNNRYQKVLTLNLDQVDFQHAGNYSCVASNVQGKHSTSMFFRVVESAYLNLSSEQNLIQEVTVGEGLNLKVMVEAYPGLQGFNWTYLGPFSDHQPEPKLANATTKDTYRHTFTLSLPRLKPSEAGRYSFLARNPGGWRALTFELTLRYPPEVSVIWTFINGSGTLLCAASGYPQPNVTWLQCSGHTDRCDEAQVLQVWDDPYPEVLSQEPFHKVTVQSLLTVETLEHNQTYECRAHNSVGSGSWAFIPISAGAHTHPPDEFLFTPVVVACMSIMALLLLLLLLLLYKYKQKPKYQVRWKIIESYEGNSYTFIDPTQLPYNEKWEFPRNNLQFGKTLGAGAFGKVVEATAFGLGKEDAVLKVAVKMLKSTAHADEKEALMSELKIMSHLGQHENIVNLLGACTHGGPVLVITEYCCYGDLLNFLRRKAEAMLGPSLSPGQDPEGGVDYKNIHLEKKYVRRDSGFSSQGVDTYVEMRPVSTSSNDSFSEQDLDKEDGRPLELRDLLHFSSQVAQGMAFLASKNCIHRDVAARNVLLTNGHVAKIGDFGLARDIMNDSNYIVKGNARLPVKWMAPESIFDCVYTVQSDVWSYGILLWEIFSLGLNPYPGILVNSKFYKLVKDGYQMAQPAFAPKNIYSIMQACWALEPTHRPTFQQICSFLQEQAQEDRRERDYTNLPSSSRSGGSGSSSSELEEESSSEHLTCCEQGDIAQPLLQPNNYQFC
Chain of FLT3 kinase (P36888 27-993): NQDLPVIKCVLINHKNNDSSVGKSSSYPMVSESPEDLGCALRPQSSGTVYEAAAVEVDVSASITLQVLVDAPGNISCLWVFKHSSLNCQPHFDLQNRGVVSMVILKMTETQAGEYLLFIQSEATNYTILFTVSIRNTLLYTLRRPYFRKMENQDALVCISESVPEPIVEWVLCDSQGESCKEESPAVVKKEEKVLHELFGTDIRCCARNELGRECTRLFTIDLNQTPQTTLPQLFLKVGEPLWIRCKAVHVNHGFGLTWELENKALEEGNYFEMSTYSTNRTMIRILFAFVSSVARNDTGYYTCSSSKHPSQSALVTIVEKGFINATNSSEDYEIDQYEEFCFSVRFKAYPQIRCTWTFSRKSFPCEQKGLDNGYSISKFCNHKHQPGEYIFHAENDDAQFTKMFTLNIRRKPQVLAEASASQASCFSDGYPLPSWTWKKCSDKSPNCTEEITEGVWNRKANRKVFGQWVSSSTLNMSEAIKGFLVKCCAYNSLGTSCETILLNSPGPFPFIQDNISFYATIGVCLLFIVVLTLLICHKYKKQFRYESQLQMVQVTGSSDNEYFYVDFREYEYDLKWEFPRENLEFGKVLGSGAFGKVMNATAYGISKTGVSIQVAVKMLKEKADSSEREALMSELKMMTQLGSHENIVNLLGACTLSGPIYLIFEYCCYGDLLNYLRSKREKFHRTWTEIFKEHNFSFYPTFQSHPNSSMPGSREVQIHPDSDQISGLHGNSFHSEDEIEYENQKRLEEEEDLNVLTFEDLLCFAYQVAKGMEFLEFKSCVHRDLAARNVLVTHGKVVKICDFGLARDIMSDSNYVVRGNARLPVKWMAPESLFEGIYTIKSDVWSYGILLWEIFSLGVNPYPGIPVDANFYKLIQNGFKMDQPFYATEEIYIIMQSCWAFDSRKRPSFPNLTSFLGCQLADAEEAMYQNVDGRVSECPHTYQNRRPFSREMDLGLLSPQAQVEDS
Chain of c-KIT kinase (P10721 26-976): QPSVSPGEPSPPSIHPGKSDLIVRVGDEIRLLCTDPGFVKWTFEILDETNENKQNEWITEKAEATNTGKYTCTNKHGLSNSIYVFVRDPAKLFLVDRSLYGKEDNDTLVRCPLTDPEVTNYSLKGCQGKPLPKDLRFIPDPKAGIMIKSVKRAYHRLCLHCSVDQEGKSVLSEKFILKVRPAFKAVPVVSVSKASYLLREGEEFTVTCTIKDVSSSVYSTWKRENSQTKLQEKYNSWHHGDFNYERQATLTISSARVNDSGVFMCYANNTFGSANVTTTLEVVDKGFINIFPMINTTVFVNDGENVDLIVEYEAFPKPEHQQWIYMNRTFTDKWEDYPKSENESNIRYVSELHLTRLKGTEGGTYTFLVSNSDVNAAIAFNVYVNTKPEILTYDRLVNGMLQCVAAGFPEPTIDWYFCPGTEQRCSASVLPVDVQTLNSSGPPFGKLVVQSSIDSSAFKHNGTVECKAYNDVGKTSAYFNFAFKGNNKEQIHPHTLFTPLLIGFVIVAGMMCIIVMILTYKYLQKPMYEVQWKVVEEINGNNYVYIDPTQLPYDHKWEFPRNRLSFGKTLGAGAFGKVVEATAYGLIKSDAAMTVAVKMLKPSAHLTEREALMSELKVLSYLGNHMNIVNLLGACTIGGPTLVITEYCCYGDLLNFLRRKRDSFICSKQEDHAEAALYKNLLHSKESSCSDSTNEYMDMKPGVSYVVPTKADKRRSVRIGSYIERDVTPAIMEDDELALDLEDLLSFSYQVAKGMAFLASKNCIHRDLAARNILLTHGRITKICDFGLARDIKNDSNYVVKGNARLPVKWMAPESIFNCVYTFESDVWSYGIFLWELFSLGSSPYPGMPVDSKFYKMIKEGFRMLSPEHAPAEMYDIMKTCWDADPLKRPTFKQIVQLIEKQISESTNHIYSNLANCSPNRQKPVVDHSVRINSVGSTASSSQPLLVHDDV

As for `COc1ccc(COc2ccc(Nc3ccc4ncc(N5CCN(C(C)=O)CC5)nc4c3C#N)cc2OC)cc1` [Example 72, 3-(4-acetylpiperazin-1-yl)-6-((3-methoxy-4-((4-methoxybenzyl)oxy)phenyl)amino)quinoxaline-5-carbonitrile], the IC50 (commonly the concentration at which inhibition is half-maximal) is more than 10000 nM in [1]; less than 100 nM in assay [2]; more than 10000 nM in [3]; 300 to 1000 nM in assay [4] (class symbol); more than 1000 nM in assay [5]; less than 300 nM in assay [6]. The half-inhibitory concentration (IC50) in assay [7] was less than 100 nM; in assay [9] it was less than 300 nM. Besides, the inhibition (as a rule, the change of the read-out against control, counted positive when it falls) at 1 µM in assay [8] is more than 50%.

For `COc1cc(Nc2ccc3ncc(N4CCOCC4)nc3c2C#N)ccc1OCc1ccc(C(F)(F)F)nc1` [Example 73, 6-((3-methoxy-4-((6-(trifluoromethyl)pyridin-3-yl)methoxy)phenyl)amino)-3-morpholinoquinoxaline-5-carbonitrile], the IC50 was more than 10000 nM in assay [1]; less than 100 nM in [2]; more than 10000 nM in assay [3]; more than 1000 nM in assay [4] (bound); more than 1000 nM in assay [5]; less than 300 nM in assay [6]. In addition, the IC50 in assay [7] was less than 100 nM; in [9], less than 300 nM. The inhibition at 1 µM in [8] is more than 50%.

As for `COc1ccc(COc2ccc(Nc3ccc4ncc(N5CCN(CCOC(C)=O)CC5)nc4c3C#N)cc2OC)cn1` [Example 74, 2-(4-(8-cyano-7-((3-methoxy-4-((6-methoxypyridin-3-yl)methoxy)phenyl)amino)quinoxalin-2-yl)piperazin-1-yl)ethyl acetate], the IC50 was 1000 to 10000 nM in assay [1]; less than 100 nM in [2]; more than 10000 nM in assay [3]; more than 1000 nM in assay [4] (bound); more than 1000 nM in assay [5]; 300 to 1000 nM in [6]. Further, the IC50 in assay [7] is less than 100 nM; in assay [9], less than 300 nM. Besides, in assay [8], the inhibition at 1 µM was more than 50%.

With `COc1ccc(COc2ccc(Nc3ccc4ncc(N5CCN(CCO)CC5)nc4c3C#N)cc2OC)cn1` [Example 75, 3-(4-(2-hydroxyethyl)piperazin-1-yl)-6-((3-methoxy-4-((6-methoxypyridin-3-yl)methoxy)phenyl)amino)quinoxaline-5-carbonitrile], the IC50 in assay [1] is more than 10000 nM; in [2] it was 100 to 300 nM; in assay [3] it was more than 10000 nM; in [4] (bound), more than 1000 nM; in assay [5], more than 1000 nM; in assay [6], 300 to 1000 nM. Also, the IC50 in assay [7] is less than 100 nM; in [9], less than 300 nM. Moreover, the inhibition at 1 µM in assay [8] is more than 50%.

Regarding `COc1ccc(COc2ccc(Nc3ccc4ncc(NCCN5CCOCC5)nc4c3C#N)cc2OC)cc1` [Example 76, 6-((3-methoxy-4-((4-methoxybenzyl)oxy)phenyl)amino)-3-((2-morpholinoethyl)amino)quinoxaline-5-carbonitrile], the IC50 in [1] is 1000 to 10000 nM; in [2], 300 to 1000 nM; in assay [3], more than 10000 nM; in assay [4] (bound), more than 1000 nM; in [5] it was more than 1000 nM; in [6] it was 1000 to 10000 nM. The values for the IC50 in assay [7] and in [9] were less than 100 nM and less than 300 nM, respectively. Further, the inhibition at 1 µM in [8] is more than 50%.

Turning to `COc1ccc(COc2ccc(Nc3ccc4ncc(NC5CCN(Cc6ccccc6)CC5)nc4c3C#N)cc2OC)cc1` [Example 77, 3-((1-benzylpiperidin-4-yl)amino)-6-((3-methoxy-4-((4-methoxybenzyl)oxy)phenyl)amino)quinoxaline-5-carbonitrile], the half-maximal inhibitory concentration (IC50) in assay [1] is 1000 to 10000 nM; in assay [2], 300 to 1000 nM; in [3], 1000 to 10000 nM; in [4] (bound), more than 1000 nM; in assay [5] it was more than 1000 nM; in assay [6], 1000 to 10000 nM. For the same compound, the IC50 in assay [7] was less than 100 nM; in assay [9], 300 to 1000 nM. Moreover, in [8], the inhibition at 1 µM is more than 50%.

With `COc1cc(Nc2ccc3ncc(N4CCN(C)CC4)nc3c2C#N)ccc1OCc1cccc(C#N)c1` [Example 78, 6-((4-((3-cyanobenzyl)oxy)-3-methoxyphenyl)amino)-3-(4-methylpiperazin-1-yl)quinoxaline-5-carbonitrile], the IC50 in assay [1] is more than 10000 nM; in assay [2], 100 to 300 nM; in assay [3], more than 10000 nM; in [4] (bound), more than 1000 nM; in assay [5] it was more than 1000 nM; in assay [6], 300 to 1000 nM. Also, the IC50 is less than 100 nM in assay [7] and less than 300 nM in assay [9]. In addition, the inhibition at 1 µM in assay [8] was more than 50%.

Consider `COc1ccc(COc2ccc(Nc3ccc4ncc(N5CCCC5)nc4c3C#N)cc2OC)cn1` [Example 79, 6-((3-methoxy-4-((6-methoxypyridin-3-yl)methoxy)phenyl)amino)-3-(pyrrolidin-1-yl)quinoxaline-5-carbonitrile], for which the IC50 is 1000 to 10000 nM in assay [1]; less than 100 nM in assay [2]; more than 10000 nM in [3]; more than 1000 nM in assay [4] (bound); more than 1000 nM in assay [5]; 300 to 1000 nM in assay [6]. The IC50 is less than 100 nM in assay [7] and less than 300 nM in assay [9]. Also, in [8], the inhibition at 1 µM is more than 50%.

For `COc1ccc(COc2ccc(Nc3ccc4ncc(N5CCN(C(C)C)CC5)nc4c3C#N)cc2OC)cc1` [Example 80, 3-(4-isopropylpiperazin-1-yl)-6-((3-methoxy-4-((4-methoxybenzyl)oxy)phenyl)amino)quinoxaline-5-carbonitrile], the half-inhibitory concentration (IC50) is 1000 to 10000 nM in assay [1]; less than 100 nM in assay [2]; 1000 to 10000 nM in assay [3]; more than 1000 nM in assay [4] (bound); more than 1000 nM in [5]; less than 300 nM in assay [6]. Also, the IC50 in assay [7] is less than 100 nM; in assay [9], less than 300 nM. The inhibition at 1 µM in [8] was more than 50%.

With `COc1cc(Nc2ccc3ncc(N4CCOCC4)nc3c2C#N)ccc1OCc1ccc2c(c1)OCO2` [Example 81, 6-((4-(benzo[d][1,3]dioxol-5-ylmethoxy)-3-methoxyphenyl)amino)-3-morpholinoquinoxaline-5-carbonitrile], the IC50 in assay [1] is more than 10000 nM; in assay [2], 300 to 1000 nM; in [3], more than 10000 nM; in [4] (bound), more than 1000 nM; in assay [5] it was more than 1000 nM; in assay [6], more than 10000 nM. In addition, the IC50 is less than 100 nM in assay [7] and less than 300 nM in assay [9]. Besides, in assay [8], the inhibition at 1 µM was more than 50%.

Take `COc1ccc(COc2ccc(Nc3ccc4ncc(N5CCC(N(C)C)CC5)nc4c3C#N)cc2OC)cn1` [Example 82, 3-(4-(dimethylamino)piperidin-1-yl)-6-((3-methoxy-4-((6-methoxy-pyridin-3-yl)methoxy)phenyl)amino)quinoxaline-5-carbonitrile]: the half-maximal inhibitory concentration (IC50) in [1] was 1000 to 10000 nM; in assay [2] it was 100 to 300 nM; in assay [3] it was 1000 to 10000 nM; in assay [4] (bound), more than 1000 nM; in assay [5] it was more than 1000 nM; in [6], less than 300 nM. The IC50 in assay [7] was less than 100 nM; in [9], less than 300 nM. Besides, in [8], the inhibition at 1 µM was more than 50%.
